Publication PMC5374673, “Activity of the novel BCR kinase inhibitor IQS019 in preclinical models of B-cell non-Hodgkin lymphoma” (Journal of Hematology & Oncology, 2017)

Key:
Format in all cases: biochemical
[1] = molecular target: Btk (Homo sapiens, UniProt Q06187); test: radiometric kinase assay and 400-kinase panel (ProQinase); also Ba/F3 cells expressing the kinase domain
[2] = molecular target: T1, Bmx (Homo sapiens, UniProt P51813); test: 400-kinase panel, residual activity at […]
T1 sequence (P51813 1-675): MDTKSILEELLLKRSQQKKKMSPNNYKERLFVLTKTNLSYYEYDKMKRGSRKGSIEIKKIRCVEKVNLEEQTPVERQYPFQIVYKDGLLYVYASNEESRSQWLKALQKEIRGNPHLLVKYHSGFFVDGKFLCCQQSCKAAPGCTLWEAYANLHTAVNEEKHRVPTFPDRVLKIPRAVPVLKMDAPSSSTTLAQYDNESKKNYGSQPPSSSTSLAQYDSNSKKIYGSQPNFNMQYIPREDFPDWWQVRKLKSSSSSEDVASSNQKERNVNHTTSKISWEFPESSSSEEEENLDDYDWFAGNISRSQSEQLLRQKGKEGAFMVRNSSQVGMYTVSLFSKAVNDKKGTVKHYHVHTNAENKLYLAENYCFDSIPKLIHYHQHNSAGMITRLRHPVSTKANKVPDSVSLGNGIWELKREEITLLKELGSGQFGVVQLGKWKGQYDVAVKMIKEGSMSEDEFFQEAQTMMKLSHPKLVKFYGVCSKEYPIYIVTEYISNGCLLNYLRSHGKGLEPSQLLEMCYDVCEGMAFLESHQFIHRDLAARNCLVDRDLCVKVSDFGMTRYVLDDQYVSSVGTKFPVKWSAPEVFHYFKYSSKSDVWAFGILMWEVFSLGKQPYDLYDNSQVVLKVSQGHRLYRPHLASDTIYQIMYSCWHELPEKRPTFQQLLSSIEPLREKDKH

[3] = molecular target: Syk (Homo sapiens, UniProt P43405); test: radiometric kinase assay and 400-kinase panel (ProQinase); also Ba/F3 cells expressing the kinase domain
[4] = molecular target: Lyn (Homo sapiens, UniProt P07948); test: as above
Chain of Lyn (P07948 2-512): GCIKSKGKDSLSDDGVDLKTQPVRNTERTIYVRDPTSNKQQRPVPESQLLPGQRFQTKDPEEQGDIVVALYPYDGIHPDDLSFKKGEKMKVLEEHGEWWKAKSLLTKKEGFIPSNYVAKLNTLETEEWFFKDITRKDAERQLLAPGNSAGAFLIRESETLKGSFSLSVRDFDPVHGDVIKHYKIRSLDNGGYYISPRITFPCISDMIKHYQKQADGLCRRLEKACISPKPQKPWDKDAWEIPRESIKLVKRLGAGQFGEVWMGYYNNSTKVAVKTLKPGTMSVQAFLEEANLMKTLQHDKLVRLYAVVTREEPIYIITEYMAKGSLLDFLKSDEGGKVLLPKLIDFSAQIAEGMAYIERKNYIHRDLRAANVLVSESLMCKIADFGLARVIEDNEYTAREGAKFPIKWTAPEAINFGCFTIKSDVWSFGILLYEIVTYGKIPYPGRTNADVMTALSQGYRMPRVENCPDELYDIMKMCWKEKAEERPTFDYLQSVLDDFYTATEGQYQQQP

Chain of Btk (Q06187 2-659): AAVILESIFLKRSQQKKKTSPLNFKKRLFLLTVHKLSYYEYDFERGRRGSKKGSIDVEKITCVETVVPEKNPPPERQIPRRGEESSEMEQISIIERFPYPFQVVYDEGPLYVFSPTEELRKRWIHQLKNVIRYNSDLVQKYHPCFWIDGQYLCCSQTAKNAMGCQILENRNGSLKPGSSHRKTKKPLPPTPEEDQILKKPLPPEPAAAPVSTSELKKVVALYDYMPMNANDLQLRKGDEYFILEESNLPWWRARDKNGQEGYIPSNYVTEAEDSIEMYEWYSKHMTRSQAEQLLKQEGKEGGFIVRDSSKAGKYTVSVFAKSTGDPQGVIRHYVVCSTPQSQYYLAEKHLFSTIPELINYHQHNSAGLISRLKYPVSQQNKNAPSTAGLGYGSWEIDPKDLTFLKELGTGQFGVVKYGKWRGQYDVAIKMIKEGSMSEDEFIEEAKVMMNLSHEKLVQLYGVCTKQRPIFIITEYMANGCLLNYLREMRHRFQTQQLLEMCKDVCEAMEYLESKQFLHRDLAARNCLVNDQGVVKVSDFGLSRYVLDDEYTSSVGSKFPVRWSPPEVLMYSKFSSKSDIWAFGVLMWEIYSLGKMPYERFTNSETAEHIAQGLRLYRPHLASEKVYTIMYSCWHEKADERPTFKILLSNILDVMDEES

For `CN1CCN(c2ccc(Nc3nc(N)c4cc(-c5c(Cl)cccc5Cl)c(=O)n(C)c4n3)cc2)CC1` [compound 19, IQS019], the IC50 [1] was 2100 nM, the “400-kinase panel, residual activity at 0.1 and 10 μM” value [2] was “the member of the Tec family of non-receptor tyrosine kinases, Bmx” and the IC50 [3] was 1600 nM. It also gave an IC50 [4] of 150 nM.
